Measured values published in the NIST ThermoML archive (doi:10.1016/j.jct.2017.07.024).

What was measured:
[1] = wn = mass fraction of the nth substance listed; details: for surface tension liquid-gas: Maximal bubble pressure; for mass density: 100 kPa, Liquid, Vibrating tube method
[2] = refractive index (Na D-line) (dimensionless); wn = mass fraction of the nth substance listed; details: 100 kPa, Liquid, Standard Abbe refractometry

CCCn1cc[n+](C)c1.C[C@@H](O)[C@H](N)C(=O)[O-] [1-propyl-3-methylimidazolium DL-threoninate] + O
Details	mass density, [1] [kg/m3]	refractive index, [2]	surface tension liquid-gas, [1] [mN/m]
288.15 K, w2 = 0.0065	1150.46	1.5132	42
288.15 K, w2 = 0.0092	1150.15	1.5127	42.2
288.15 K, w2 = 0.0116	1149.81	1.5121	42.4
288.15 K, w2 = 0.0135	1149.56	1.5117	42.6
288.15 K, w2 = 0.0161	1149.22	1.5111	42.8
293.15 K, w2 = 0.0065	1147.75	1.5116	41.7
293.15 K, w2 = 0.0092	1147.33	1.5111	41.9
293.15 K, w2 = 0.0116	1146.94	1.5105	42.1
293.15 K, w2 = 0.0135	1146.61	1.5101	42.3
293.15 K, w2 = 0.0161	1146.22	1.5095	42.5
298.15 K, w2 = 0.0065	1143.37	1.5101	41.3
298.15 K, w2 = 0.0092	1142.89	1.5096	41.6
298.15 K, w2 = 0.0116	1142.43	1.509	41.8
298.15 K, w2 = 0.0135	1142.12	1.5086	42
298.15 K, w2 = 0.0161	1141.66	1.508	42.2
303.15 K, w2 = 0.0065	1139.97	1.5088	41
303.15 K, w2 = 0.0092	1139.49	1.5082	41.3
303.15 K, w2 = 0.0116	1139.07	1.5077	41.5
303.15 K, w2 = 0.0135	1138.7	1.5073	41.7
303.15 K, w2 = 0.0161	1138.27	1.5068	41.9
308.15 K, w2 = 0.0065	1136.59	1.5074	40.7
308.15 K, w2 = 0.0092	1136.11	1.5069	41
308.15 K, w2 = 0.0116	1135.68	1.5064	41.2
308.15 K, w2 = 0.0135	1135.31	1.5061	41.4
308.15 K, w2 = 0.0161	1134.87	1.5056	41.6
313.15 K, w2 = 0.0065	1133.16	1.506	40.4
313.15 K, w2 = 0.0092	1132.71	1.5055	40.7
313.15 K, w2 = 0.0116	1132.22	1.5052	40.9
313.15 K, w2 = 0.0135	1131.88	1.5048	41.1
313.15 K, w2 = 0.0161	1131.4	1.5044	41.3
318.15 K, w2 = 0.0065	1129.72	1.5044	40.1
318.15 K, w2 = 0.0092	1129.19	1.504	40.4
318.15 K, w2 = 0.0116	1128.78	1.5036	40.6
318.15 K, w2 = 0.0135	1128.43	1.5033	40.8
318.15 K, w2 = 0.0161	1127.95	1.5028	41.1
323.15 K, w2 = 0.0065	1126.27	1.5029	39.8
323.15 K, w2 = 0.0092	1125.8	1.5024	40.1
323.15 K, w2 = 0.0116	1125.32	1.5021	40.4
323.15 K, w2 = 0.0135	1124.96	1.5018	40.6
323.15 K, w2 = 0.0161	1124.48	1.5013	40.9
328.15 K, w2 = 0.0065	1122.82	1.5015	39.5
328.15 K, w2 = 0.0092	1122.34	1.5011	39.8
328.15 K, w2 = 0.0116	1121.86	1.5007	40.1
328.15 K, w2 = 0.0135	1121.5	1.5004	40.4
328.15 K, w2 = 0.0161	1121	1.4999	40.7
